Consider five compounds from PubChem BioAssay AID1745844 (Carcinogenic Potency Database (CPDB), 2022).

Active and inactive are the calls of the source. No rule for the calls is given here.

The test system of the data set is rodent lifetime carcinogenesis bioassay, tumor incidence TD50. Put plainly: chronic cancer bioassays in animals – CPDB, compiled studies (AID 1745844).

One may read the TD50 as the dose at which the toxic effect under study appears in half of the subjects. As to `CCCC(Cl)CCCC(Cl)CCC(Cl)CCC(Cl)CCC(Cl)CCCC(Cl)CCC` (stereo not drawn), the TD50 (mouse, strain B6C3F1, females, by gavage, site: Harderian gland, lesion: adenoma, NOS, dosed 103 weeks, study length 104 weeks) was found to be 347 mg/kg/day; the TD50 (mouse, strain B6C3F1, females, by gavage, site: liver + thyroid gland, lesion: hepatocellular adenoma + hepatocellular carcinoma + follicular-cell adenoma + follicular-cell carcinoma, dosed 103 weeks, study length 104 weeks) came to 86.8 mg/kg/day; the TD50 (mouse, strain B6C3F1, females, by gavage, site: lung, lesion: alveolar/bronchiolar adenoma + alveolar/bronchiolar carcinoma, dosed 103 weeks, study length 104 weeks) amounted to 1.22e+06 mg/kg/day; the TD50 (mouse, strain B6C3F1, females, by gavage, site: multiple organs, lesion: malignant lymphoma, lymphocytic type, dosed 103 weeks, study length 104 weeks) worked out at 599 mg/kg/day; the TD50 (mouse, strain B6C3F1, females, by gavage, site: thyroid gland, lesion: follicular-cell adenoma + follicular-cell carcinoma, dosed 103 weeks, study length 104 weeks) is 307 mg/kg/day; the TD50 (mouse, strain B6C3F1, females, by gavage, site: thyroid gland, lesion: follicular-cell adenoma, dosed 103 weeks, study length 104 weeks) was 372 mg/kg/day. The TD50 by setting is: (mouse, strain B6C3F1, males, by gavage, site: liver + mesenteric lymph node + multiple organs + small intestine + spleen, lesion: malignant lymphoma, NOS + malignant lymphoma, mixed type + malignant lymphoma, lymphocytic type + malignant lymphoma, histiocy, dosed 103 weeks, study length 104 weeks) 6540 mg/kg/day; (mouse, strain B6C3F1, males, by gavage, site: liver, lesion: hepatocellular adenoma + hepatocellular carcinoma, dosed 103 weeks, study length 104 weeks) 143 mg/kg/day; (mouse, strain B6C3F1, males, by gavage, site: liver, lesion: hepatocellular adenoma, dosed 103 weeks, study length 104 weeks) 157 mg/kg/day; (mouse, strain B6C3F1, males, by gavage, site: lung, lesion: alveolar/bronchiolar carcinoma, dosed 103 weeks, study length 104 weeks) 606 mg/kg/day; (mouse, strain B6C3F1, males, by gavage, site: mesenteric lymph node + multiple organs + small intestine + spleen, lesion: malignant lymphoma, mixed type, dosed 103 weeks, study length 104 weeks) 12100 mg/kg/day; (mouse, strain B6C3F1, males, by gavage, site: mesenteric lymph node + multiple organs, lesion: malignant lymphoma, lymphocytic type, dosed 103 weeks, study length 104 weeks) 22900 mg/kg/day. The TD50 is, setting by setting: (mouse, strain B6C3F1, males, by gavage, site: multiple organs, lesion: malignant lymphoma, histiocytic type, dosed 103 weeks, study length 104 weeks) 43200 mg/kg/day; (mouse, strain B6C3F1, males, by gavage, site: thyroid gland, lesion: follicular-cell carcinoma, dosed 103 weeks, study length 104 weeks) 44000 mg/kg/day; (rat, strain Fischer 344, females, by gavage, site: adrenal medulla, lesion: pheochromocytoma + pheochromocytoma, malignant, dosed 103 weeks, study length 105 weeks) 2350 mg/kg/day; (rat, strain Fischer 344, females, by gavage, site: any site (literature study), lesion: several types, types named in the paper, dosed 104 weeks, study length 105 weeks) 1100 mg/kg/day; (rat, strain Fischer 344, females, by gavage, site: liver + thyroid gland, lesion: hepatocellular carcinoma + neoplastic nodule + follicular-cell adenoma + follicular-cell carcinoma, dosed 104 weeks, study length 105 weeks) 583 mg/kg/day; (rat, strain Fischer 344, females, by gavage, site: liver, lesion: hepatocellular adenoma + hepatocellular carcinoma + neoplastic nodule, dosed 103 weeks, study length 105 weeks) 24800 mg/kg/day. Moreover, the TD50 is, setting by setting: (rat, strain Fischer 344, females, by gavage, site: liver, lesion: hepatocellular adenoma + hepatocellular carcinoma + neoplastic nodule, dosed 104 weeks, study length 105 weeks) 1140 mg/kg/day; (rat, strain Fischer 344, females, by gavage, site: liver, lesion: hepatocellular carcinoma + neoplastic nodule, dosed 104 weeks, study length 105 weeks) 1140 mg/kg/day; (rat, strain Fischer 344, females, by gavage, site: liver, lesion: neoplastic nodule, dosed 104 weeks, study length 105 weeks) 1200 mg/kg/day; (rat, strain Fischer 344, females, by gavage, site: multiple organs, lesion: mononuclear-cell leukemia, dosed 104 weeks, study length 105 weeks) 345 mg/kg/day; (rat, strain Fischer 344, females, by gavage, site: pancreas, lesion: acinar-cell adenoma, dosed 104 weeks, study length 105 weeks) 839 mg/kg/day; (rat, strain Fischer 344, females, by gavage, site: thyroid gland, lesion: follicular-cell adenoma + follicular-cell carcinoma, dosed 104 weeks, study length 105 weeks) 1160 mg/kg/day. The TD50 runs as follows: (rat, strain Fischer 344, females, by gavage, site: thyroid gland, lesion: follicular-cell adenoma, dosed 104 weeks, study length 105 weeks) 736 mg/kg/day; (rat, strain Fischer 344, females, by gavage, site: thyroid gland, lesion: follicular-cell carcinoma, dosed 104 weeks, study length 105 weeks) 4060 mg/kg/day; (rat, strain Fischer 344, females, by gavage, site: uterus, lesion: endometrial stromal polyp + endometrial stromal sarcoma, dosed 104 weeks, study length 105 weeks) 394 mg/kg/day; (rat, strain Fischer 344, males, by gavage, site: adrenal gland, lesion: pheochromocytoma + pheochromocytoma, malignant, dosed 104 weeks, study length 105 weeks) 192 mg/kg/day; (rat, strain Fischer 344, males, by gavage, site: any site (literature study), lesion: several types, types named in the paper, dosed 104 weeks, study length 105 weeks) 75.7 mg/kg/day; (rat, strain Fischer 344, males, by gavage, site: kidney + liver, lesion: tubular-cell adenoma + tubular-cell adenocarcinoma + hepatocellular carcinoma + neoplastic nodule, dosed 104 weeks, study length 105 weeks) 110 mg/kg/day. The TD50 by setting is: (rat, strain Fischer 344, males, by gavage, site: kidney, lesion: tubular-cell adenoma + tubular-cell adenocarcinoma, dosed 104 weeks, study length 105 weeks) 196 mg/kg/day; (rat, strain Fischer 344, males, by gavage, site: kidney, lesion: tubular-cell adenoma, dosed 104 weeks, study length 105 weeks) 417 mg/kg/day; (rat, strain Fischer 344, males, by gavage, site: liver, lesion: hepatocellular adenoma + hepatocellular carcinoma + neoplastic nodule, dosed 103 weeks, study length 105 weeks) 14500 mg/kg/day; (rat, strain Fischer 344, males, by gavage, site: liver, lesion: hepatocellular adenoma + hepatocellular carcinoma + neoplastic nodule, dosed 104 weeks, study length 105 weeks) 123 mg/kg/day; (rat, strain Fischer 344, males, by gavage, site: liver, lesion: hepatocellular carcinoma + neoplastic nodule, dosed 104 weeks, study length 105 weeks) 123 mg/kg/day; (rat, strain Fischer 344, males, by gavage, site: liver, lesion: hepatocellular carcinoma, dosed 104 weeks, study length 105 weeks) 551 mg/kg/day. The TD50 reads like this: (rat, strain Fischer 344, males, by gavage, site: liver, lesion: neoplastic nodule, dosed 103 weeks, study length 105 weeks) 14500 mg/kg/day (inactive); (rat, strain Fischer 344, males, by gavage, site: liver, lesion: neoplastic nodule, dosed 104 weeks, study length 105 weeks) 173 mg/kg/day; (rat, strain Fischer 344, males, by gavage, site: mammary gland, lesion: fibroadenoma, dosed 104 weeks, study length 105 weeks) 566 mg/kg/day; (rat, strain Fischer 344, males, by gavage, site: multiple organs + spleen, lesion: mononuclear-cell leukemia, dosed 104 weeks, study length 105 weeks) 406 mg/kg/day; (rat, strain Fischer 344, males, by gavage, site: pancreas, lesion: acinar-cell adenoma, dosed 104 weeks, study length 105 weeks) 150 mg/kg/day; (rat, strain Fischer 344, males, by gavage, site: pancreas, lesion: acinar-cell carcinoma + acinar-cell adenoma, dosed 104 weeks, study length 105 weeks) 144 mg/kg/day. Besides, the TD50 reads like this: (rat, strain Fischer 344, males, by gavage, site: pancreatic islets, lesion: islet-cell adenoma, dosed 103 weeks, study length 105 weeks) 17600 mg/kg/day; (rat, strain Fischer 344, males, by gavage, site: preputial gland, lesion: adenoma, NOS + carcinoma, NOS, dosed 104 weeks, study length 105 weeks) 522 mg/kg/day; (rat, strain Fischer 344, males, by gavage, site: preputial gland, lesion: adenoma, NOS, dosed 104 weeks, study length 105 weeks) 568 mg/kg/day; (rat, strain Fischer 344, males, by gavage, site: skin + subcutaneous tissue, lesion: fibroma, dosed 104 weeks, study length 105 weeks) 332 mg/kg/day; (rat, strain Fischer 344, males, by gavage, site: testis, lesion: interstitial-cell tumor, dosed 104 weeks, study length 105 weeks) 75.2 mg/kg/day.

On to `C=CCNNCC=C`, for which the carcinogen call reads like this: (mouse, strain Swiss albino, females, in drinking water, site: liver, lesion: angioma, dosed 83 weeks, study length 83 weeks) “negative (inactive)”; (mouse, strain Swiss albino, females, in drinking water, site: liver, lesion: angiosarcoma, dosed 83 weeks, study length 83 weeks) “negative (inactive)”; (mouse, strain Swiss albino, males, in drinking water, site: liver, lesion: angioma, dosed 82 weeks, study length 82 weeks) “negative (inactive)”. For the same compound, the TD50 by setting is: (mouse, strain Swiss albino, females, in drinking water, site: liver, lesion: hepatoma, dosed 83 weeks, study length 83 weeks) 409 mg/kg/day (inactive); (mouse, strain Swiss albino, females, in drinking water, site: lung, lesion: adenocarcinoma, dosed 83 weeks, study length 83 weeks) 78.3 mg/kg/day; (mouse, strain Swiss albino, females, in drinking water, site: lung, lesion: adenoma, dosed 83 weeks, study length 83 weeks) 47.9 mg/kg/day; (mouse, strain Swiss albino, females, in drinking water, site: lung, lesion: several types, types named in the paper, dosed 83 weeks, study length 83 weeks) 33.8 mg/kg/day; (mouse, strain Swiss albino, males, in drinking water, site: lung, lesion: adenocarcinoma, dosed 82 weeks, study length 82 weeks) 60 mg/kg/day; (mouse, strain Swiss albino, males, in drinking water, site: lung, lesion: adenoma, dosed 82 weeks, study length 82 weeks) 35.4 mg/kg/day. For the same compound, the TD50 (mouse, strain Swiss albino, males, in drinking water, site: lung, lesion: several types, types named in the paper, dosed 82 weeks, study length 82 weeks) was 33.9 mg/kg/day.

With `O=NN1CCC[C@H]1C(=O)O`, under “rat, strain MRC, females, in drinking water, site: any site (literature study), lesion: several types, types named in the paper, dosed 75 weeks, study length 104 weeks”, the TD50 was 6.69 mg/kg/day (inactive). Moreover, the carcinogen call (rat, strain MRC, males, in drinking water, site: any site (literature study), lesion: several types, types named in the paper, dosed 75 weeks, study length 104 weeks) is “negative (inactive)”.

On to `CN(N=O)c1ccc(N=O)cc1`, for which the TD50 reads like this: (rat, strain CB, males, i.p., site: liver, lesion: hepatoma, dosed 26 weeks, study length 86 weeks) 1.5 mg/kg/day (inactive); (rat, strain CB, males, i.p., site: peritoneal cavity, lesion: several types, types named in the paper, dosed 26 weeks, study length 86 weeks) 1.3 mg/kg/day.

On to `ON=C1CCCC1`, for which the TD50 was 70.7 mg/kg/day (rat, strain Fischer 344, males, by gavage, site: liver, lesion: hepatocellular carcinoma, dosed 50 weeks, study length 83 weeks) and 40.9 mg/kg/day (rat, strain Fischer 344, males, by gavage, site: liver, lesion: several types, types named in the paper, dosed 50 weeks, study length 83 weeks).
